The values that follow come from patent US20240108610A1, “RECTAL ADMINISTRATION OF ROFLUMILAST FOR THE TREATMENT OF CROHN'S DISEASE” (King Abdulaziz University, priority 2022, published 2024).

In experiment [1] the test system is trinitrobenzenesulfonic acid (TNBS)-induced colitis. The experiment can be described thus: Colonic length and macroscopic appearance in TNBS-induced chronic colitis. It counts as in vivo, rat. How it is done: (§1) Chronic colitis was induced by weekly rectal injections of increasing doses of TNBS over 6 weeks (15, 30, 45, 60, 60, and 60 mg from day 0 to day 35), as previously described (4,12). Briefly, after food deprivation for 24 h, rats were anesthetized with an intraperitoneal injection of 1% isoflurane. TNBS was dissolved in ethanol (50%) and instilled into the colon using a cannula (0.25 mL), and then the rats were held upside down for 3 min to prevent escape of the intracolonic TNBS. Roflumilast was dissolved in dimethyl sulfoxide and diluted in 0.5% carboxymethyl cellulose sodium to a final concentration of 5.0 mg·kg^−1·day^−1 as previously described (13). Five groups of rats (n=8) were established: normal control (NC group), TNBS-treated (TNBS group, positive control), and three TNBS-treated groups that received oral sulfasalazine (SS group, 500 mg/kg) (14), oral roflumilast (by gastric gavage, OR group, 5 mg/kg), or rectal roflumilast (RR group, 5 mg/kg). Treatments were administered once daily in a volume of 200 μL for 15 days starting 48 h after the induction of colitis (from day 37) (15), and the control rats received equal amounts of vehicle. At the end of the treatment period, the rats were evaluated with the colitis activity score. To detect the effects of the treatments on systemic inflammatory processes, blood was collected for measurements of the proinflammatory mediators TNF-α, IL-2, and IL-6. At the end of the 15-day treatment period, the rats were sacrificed by cervical dislocation, and the colon was isolated, cleaned of feces, and measured for weight and length. Colonic myeloperoxidase (MPO) activity and glutathione (GSH) and malonaldehyde (MDA) levels were measured. The colon was examined macroscopically for gross changes and microscopically in sections stained with hematoxylin and eosin (H&E), Masson trichrome, and Periodic Acid Schiff (PAS) stains as well as KI-67 and TNF-α immunostaining. After the rats were sacrificed, their colon was excised, and its length was measured. The appearance of the colon regarding edema, ulceration, and necrosis was evaluated (17).

Experiment [2] has the same test system. The experiment can be described thus: Histopathological examination of colonic sections (H&E, Masson trichrome, PAS). The class given is in vivo, rat. How it is done: as §1, with “The colonic segments” for “After the rats”, “fixed in 10% buffered formalin” for “sacrificed, their colon was excised,”, “embedded in paraffin. Afterwards, 3-5-μm-thick sections were made and stained with H&E, Masson's trichrome for collagen, and PAS for […] and mucopolysaccharides.” for “its length was measured.”, “severity” for “appearance”, “lesions” for “colon regarding edema, ulceration, and necrosis”, “by a blinded histopathologist as normal, mild, moderate, or marked injury (21).” for “(17).”

The mark [3] stands for this setting: oral, once daily for 15 days, sulfasalazine 500 mg/kg, roflumilast 5 mg/kg.
The mark [4] stands for this setting: rectal, 5 mg/kg once daily for 15 days.

As for `O=C(O)c1cc(/N=N/c2ccc(S(=O)(=O)Nc3ccccn3)cc2)ccc1O` [sulfasalazine], in experiment [1] (setting [3]), the Colonic length entry is listed as “greatest effect” and the Colonic macroscopic appearance result is “marked improvement”. In experiment [2] (setting [3]), the PAS-stained goblet cells result is listed as “nearly normal population”; the “collagen deposition, Masson trichrome” value is “marked decrease”; the “colonic sections stained with H&E, improvement” value (“colonic sections stained” below) is recorded as “marked improvement”.
As for `O=C(Nc1c(Cl)cncc1Cl)c1ccc(OC(F)F)c(OCC2CC2)c1` [roflumilast], in experiment [1] (setting [3]), the Colonic length entry is “more improvement than rectal roflumilast” and the Colonic macroscopic appearance result was “moderate to marked improvement”. Further, the Colonic macroscopic appearance result in experiment [1] (setting [4]) is reported as “mild improvement”. Also, in experiment [2] (setting [3]), the PAS-stained goblet cells entry is recorded as “moderate population”; the “collagen deposition, Masson trichrome” value was “moderate decrease”; the “colonic sections stained” value was “moderate improvement”. Moreover, in experiment [2] (setting [4]), the PAS-stained goblet cells entry is “small population”; the “collagen deposition, Masson trichrome” value is reported as “mild decrease”; the “colonic sections stained” value is given as “mild improvement”.
